Data set [1] has as its system hypercholesterolaemia induced by the administration of Triton WR 1339. Put plainly: Hypercholesterolaemia induced by Triton WR 1339 (Garattini et al.). It counts as in vivo. The conditions noted are these: among the products examined. From the text: To determine the hypercholesterolaemia activity tests have been conducted with hypercholesterolaemia induced by the administration of Triton WR 1339 in accordance with S. Garattini C.Morpurgo and Passerini (Experiment 12 (1956)347). The results obtained using clofibrate (ethyl […] of p-chlorophenoxyisobutiric acid), as a reference standard are shown in Table II below.

In data set [2] the test system is lactescence of the serum. Nature of the data set: Hyperlipaemia activity: lactescence of the serum after oral olive oil. In kind it is in vivo. To be noted: for Activity; Hyper Lipaemia (%): Dose 200 mg/kg orally, suspended in 10 ml/kg of olive oil, serum lactescence 6 hours after administration; for hyperlipaemia activity (in words): against clofibrate. How it is done:
For the determination of the hyperlipaemia activity the products were administered orally suspended in 10 ml/kg of olive oil evaluating the lactescence of the serum 6 hours after administration.

Data set [3] has as its system Platelet aggregation. Put plainly: Anti platelet aggregation activity "ex vivo" (Born), ADP-induced aggregation after administration by gastric catheter. It counts as in vivo, rats, Sprage Dawley. To be noted: for inhibition at 200 mg/kg: Dose 200 mg/kg p.o., rats, ADP-induced, 5 hours after administration; for anti platelet aggregation activity (in words): compared with acetilsalicilic acid given in a double dose. From the text: Platelet aggregation is induced by ADP (adenosindiphosphate) and measured in an aggregometer(Bryston) connected to a model R Omniscriber recorder.

Data set [4] can be described thus: in vivo. To be noted: mouse, ip, NMRI male mice, suspended in Tween 80 at 1% plus CMC at 2% in physiological serum, read-out: LD 50 mg/kg. i.p. NMRI mouse. How it is done:
The products were administered via intraperitoneal, suspended in Tween 80 at 1% plus CMC at 2% in physiological serum.
The reference standard used was phenolbutazone.

[5] abbreviates: Rattus norvegicus, Platelet, po.

As usually defined, the inhibition is the relative decrease from the control value, in per cent. For `CC(C)(Oc1ccc(C(=O)c2ccc(Cl)cc2)cc1)C(=O)NC(=O)NCN1CCOCC1` [ITA-375, N-2-[p-(p'-chlorobenzoil)phenoxy]-2-methylpropionyl-N'-morpholine methylurea], the “hypercholesterolaemia activity (in words)” value in data set [1] is “stands out for its efficacity”. Also, in data set [2], the “Activity; Hyper Lipaemia (%)” value was 41,1% and the “hyperlipaemia activity (in words)” value is given as “stand out in this activity”. In addition, at 200 mg/kg the inhibition in data set [3] (setting [5]) was 68.5%. In addition, the “anti platelet aggregation activity (in words)” value in data set [3] is “stand out in their anti platelet aggregation activity”. Moreover, in data set [4], the LD50 was found to be 950 mg/kg.
On to `CC(C)(Oc1ccc(C(=O)c2ccc(Cl)cc2)cc1)C(=O)NC(N)=O` [ITA-374, N-2-[p-(p' -chlorobenzoil)phenoxy]-2-methylpropionylurea], for which the “Activity; Hyper Lipaemia (%)” value in data set [2] is recorded as 28,2%. The compound further gave an inhibition at 200 mg/kg in data set [3] (setting [5]) of 16.1%. The LD50 in data set [4] is over 3000 mg/kg.
In the case of `CC(=O)Oc1ccccc1C(=O)O` [Acelylsalicilic acid, reference compound], the inhibition at 400 mg/kg in data set [3] (Rattus norvegicus, Platelet, po, 5 h, read-out: Anti platelet aggregation p.o. % inhibition (5 hours)) amounted to 86.3%.
Regarding `COc1ccccc1C(=O)NC(=O)NCN1CCOCC1` [ITA-418, N-(2-methoxybenzoil)-N'-morpholinomethylurea], 200 mg/kg produced 68% inhibition in data set [3] (setting [5]). The LD50 in data set [4] came out at 1100 mg/kg.
`CC(C)Cc1ccc(C(C)C(=O)NC(=O)NCN2CCOCC2)cc1` (stereo not shown) [ITA-376, N-2-(p-isobutylphenyl) propionyl-N'-morpholinomethylurea]: in data set [2], the “Activity; Hyper Lipaemia (%)” value was 1,3%. In addition, testing at 200 mg/kg in data set [3] (setting [5]) gave an inhibition of 12.7%. Moreover, the LD50 in data set [4] came to 1800 mg/kg.
With `O=C(NCN1CCOCC1)NC(=O)C(Oc1ccc(Cl)cc1)Oc1ccc(Cl)cc1` [ITA-373, N-[bis(p-chiorophenoxy)] acetyl -N'-morpholinomethylurea], at 200 mg/kg the inhibition in data set [3] (setting [5]) was 11.9%. Besides, in data set [4], the LD50 turned out to be 1700 mg/kg.
For the compound `COc1ccc2c(c1)c(CC(=O)NC(=O)NCN1CCOCC1)c(C)n2C(=O)c1ccc(Cl)cc1` [ITA-377, N-[1-(p-chiorobenzoil) -2-methyl-5-methoxyindol-3-il]acetyl-N' -morpholinomethylurea], the “Activity; Hyper Lipaemia (%)” value in data set [2] is 12,6%. For the same compound, at 200 mg/kg the inhibition in data set [3] (setting [5]) was 5.3%. Besides, in data set [4], the LD50 is over 3000 mg/kg.
The compound `O=C(COc1ccc(Cl)cc1)NC(=O)NCN1CCOCC1` [ITA-372, N-(p-chlorophenoxy)acetyl N' -morpholinomethylurea] came in with an inhibition at 200 mg/kg in data set [3] (setting [5]) of 8.1%. Besides, the LD50 in data set [4] was 300 mg/kg.
With `O=C(NCN1CCOCC1)NC(=O)c1cccnc1` [ITA-378, N-nicotinoil-N'-morpholino methylurea], in data set [2], the “Activity; Hyper Lipaemia (%)” value was 54,7% and the “hyperlipaemia activity (in words)” value is on record as “stand out in this activity”. The compound also gave an inhibition at 200 mg/kg in data set [3] (setting [5]) of 81.9%. In data set [3], the “anti platelet aggregation activity (in words)” value is on record as “stand out in their anti platelet aggregation activity”. In addition, in data set [4], the LD50 stood at 1700 mg/kg.
For the compound `CCOC(=O)C(C)(C)Oc1ccc(Cl)cc1` [Clofibrate, ethyl esther of p-chlorophenoxyisobutiric acid, reference compound], in data set [2], the “Activity; Hyper Lipaemia (%)” value is recorded as 22,8%.

Values taken from patent EP0007648A1, “New acylureas with pharmaceutical activity, the process for their preparation, and pharmaceutical compositions which contain them” (Investigacion Tecnica Y Aplicada, S.A., priority 1978, dated 1980).
